Results from patent US9233093B2, “Composition and/or method for preventing recurrence of stroke” (MOCHIDA PHARMACEUTICALS CO., LTD., priority 2006, dated 2016).
Several values for one entry are separate records, joined by “and”; a condition that tells them apart may be missing. Identical values can stand only once.

Columns and labels:
[1] = system: hyperlipidemia patients having history of stroke (onset/recurrence of stroke); test: DELIS (Japan EPA Lipid Intervention Study) partial analysis: recurrence of stroke over 5 years in patients with history of stroke; type: in vivo, human; design: Inhibition Rate (%): concentration or dose not given beside the values; details: for Incidence rate (%) of EPA-E group: TG less than 400 mg/dL; for Inhibition Rate (%): vs control group; for reduction of the incidence rate of stroke (in words): time course 1 to 5 years
Description: This trial is a partial analysis of the results obtained in DELIS (Japan EPA Lipid Intervention Study), a large scale clinical trial of high purity EPA preparation which was presented at the American College of Cardiology 2005 Annual Meeting.
Specifically, of the 18,645 subject patients in the DELIS trial (hyperlipidemia patients with serum T-Cho concentration of 250 mg/dl or more, at ages of 40 to 75 for male and […] to 75 for female; the patients within six months from the onset of stroke were excluded in order to exclude patients in the acute period of the stroke from the trial subjects) (EPA-E group (9,326 cases) and control group (9,319 cases)), 485 subjects from the EPA-E group and 457 subjects from the control group, having history of stroke (cerebral thrombosis, cerebral embolism, intracerebral hemorrhage, subarachnoid hemorrhage, and transient ischemic attack) were observed and analyzed for the recurrence of stroke during the period of 5 years from the start of the administration. Further, for the cases where serum TG/HDL-C ratio was known (but excluding the cases where TG value was 400 mg/dl or more), results from the subjects divided into three groups based on the serum TG/HDL-C ratio at the time of registration were also analyzed. The EPA-E group was orally administered with Epadel (Mochida Pharmaceutical Co., Ltd.) typically at an adult dose of 600 mg per administration and 3 times a day immediately after the meal. However, in the cases having abnormal serum TG, the dose could be increased up to 900 mg per administration and 3 times a day, depending on the abnormality. In both groups, pravastatin sodium (Mevalotin™ tablets and fine granules, Sankyo Co., Ltd.), simvastatin (Lipovas™ tablets, Banyu Pharmaceutical Co., Ltd.), or atorvastatin calcium hydrate (Lipitor™ tablets, Astellas Pharma Inc. and Pfizer) was used as a base drug (basal treatment), which was orally administered according to a predetermined dosage regimen.
The number of onset (recurrence) of stroke, the incidence rate (%), and the odds ratio for the EPA-E group in relation to the control group during the observation period of 5 years are shown in Table 1. The odds ratio was calculated by the equation of (incidence rate of the EPA-E group)/(incidence rate of the control group), and the inhibition rate of onset of stroke was calculated by the equation of {((incidence rate of stroke for the control group)−(incidence rate of stroke for the EPA-E group))/(incidence rate of stroke for the control group)}×100.
Further, the data described above were statistically analyzed by taking biases in the background (smoking habit, diabetes, etc.) between the groups into consideration.
Similarly, for the cases where serum TG/HDL-C ratio was known (but excluding the cases where TG value was 400 mg/dl or more), each of the three groups of subjects, which are divided based on the serum TG/HDL-C ratio at the time of registration, was analyzed on the number of onset (recurrence) of stroke, the incidence rate (%), and the odds ratio for the EPA-E group in relation to the control group during the observation period of 5 years, as shown in Table 4. The odds ratio was calculated by the equation of (incidence rate of the EPA-E group)/(incidence rate of the control group), and the inhibition rate of onset of stroke was calculated by the equation of {((incidence rate of stroke for the control group)−(incidence rate of stroke for the EPA-E group))/(incidence rate of stroke for the control group)}×100.

[2] = system: hyperlipidemia patients (cardiac events); details: use in combination with statin; large scale clinical trial; cited from earlier work
[3] = after 1 year, serum TG/HDL-C ratio 3.75 or more
[4] = after 2 years, serum TG/HDL-C ratio 3.75 or more
[5] = after 3 years, serum TG/HDL-C ratio 3.75 or more
[6] = after 4 years, serum TG/HDL-C ratio 3.75 or more
[7] = after 5 years, serum TG/HDL-C ratio 3.75 or more
[8] = all patients with history of stroke, 5 years
[9] = cerebral thrombosis, patients with history of stroke, 5 years
[10] = serum TG/HDL-C ratio at registration less than 1, TG less than 400 mg/dl, 5 years
[11] = total of infarction type diseases, patients with history of stroke, 5 years

CC/C=C\C/C=C\C/C=C\C/C=C\C/C=C\CCCC(=O)OCC [EPA-E, ethyl icosapentate]
Incidence rate (%) in EPA-E group ([1]; after 1 year, all patients with history of stroke, analyzed taking background biases into consideration): 2.1%
Incidence rate (%) of EPA-E group [1, 3]: 1.5%
Inhibition Rate (%) [1, 3]: 17%
Incidence rate (%) in EPA-E group ([1]; after 2 years, all patients with history of stroke, bias-adjusted analysis): 3.6%
Inhibition Rate (%) ([1]; after 2 years, all patients with history of stroke): 8%
Incidence rate (%) of EPA-E group [1, 4]: 2.9%
Inhibition Rate (%) [1, 4]: 53%
Incidence rate (%) in EPA-E group ([1]; after 3 years, all patients with history of stroke, bias-adjusted analysis): 4.7%
Inhibition Rate (%) ([1]; after 3 years, all patients with history of stroke): 16%
Incidence rate (%) of EPA-E group [1, 5]: 4.4%
Inhibition Rate (%) [1, 5]: 29%
Incidence rate (%) in EPA-E group ([1]; after 4 years, all patients with history of stroke, bias-adjusted analysis): 5.7%
Inhibition Rate (%) ([1]; after 4 years, all patients with history of stroke): 35%
Incidence rate (%) of EPA-E group [1, 6]: 5.2%
Inhibition Rate (%) [1, 6]: 55%
Incidence rate (%) in EPA-E group ([1]; after 5 years, all patients with history of stroke, bias-adjusted analysis): 7.4%
Inhibition Rate (%) ([1]; after 5 years, all patients with history of stroke): 37%
Incidence rate (%) of EPA-E group [1, 7]: 7.4%
Inhibition Rate (%) [1, 7]: 48%
Odds ratio (incidence rate of EPA-E group/incidence rate of control group) [1, 8]: 0.648
reduction of incidence rate of stroke compared with the control group [1, 8]: about 35%
Stroke cases/All cases ([1]; all patients with history of stroke, observation period of 5 years, Epadel 600 mg 3 times a day (up to 900 mg) plus statin base drug): 33/485
reduction of the incidence rate of stroke (in words) ([1]; all patients with history of stroke): significant at 3 years or later after the start of the administration
Stroke cases/All cases, cerebral thrombosis [1, 9]: 13/485
incidence rate, cerebral thrombosis [1, 9]: (2.9%)
number of cases and incidence rates of hemorrhage type diseases vs control group ([1]; hemorrhage type diseases, patients with history of stroke): lower
reduction of the incidence rate of stroke (in words) ([1]; patients with serum TG/HDL-C ratio 3.75 or more): significant at 3 years or later after the start of the administration
reduction of incidence rate of stroke compared to the control group ([1]; serum TG/HDL-C ratio 1 or more but less than 3.75, 5 years): about 36%
reduction of incidence rate of stroke compared to the control group ([1]; serum TG/HDL-C ratio 3.75 or more, 5 years): about 48%
Odds ratio (incidence rate of EPA-E group/incidence rate of control group) ([1]; serum TG/HDL-C ratio at registration 1 to 3.75, 5 years): 0.640
Stroke cases/All cases ([1]; serum TG/HDL-C ratio at registration 1 to 3.75, TG less than 400 mg/dl, 5 years): 14/244
Odds ratio (incidence rate of EPA-E group/incidence rate of control group) ([1]; serum TG/HDL-C ratio at registration 3.75 or more, 5 years): 0.519
Stroke cases/All cases ([1]; serum TG/HDL-C ratio at registration 3.75 or more, TG less than 400 mg/dl, 5 years): 10/135
Stroke cases/All cases [1, 10]: no onset of stroke was observed and 0/18
incidence rate of stroke [1, 10]: (0.0) %
Stroke cases/All cases, total of infarctions [1, 11]: 28/485
incidence rate, total of infarctions [1, 11]: (6.20) %
inhibiting cardiac events [2]: effective
